The supplement of paper PMC8671470

These compounds were tested on myeloid leukemia patient primary cells Pat.1 (assay: cell viability (% survival relative to DMSO control); higher = less cytotoxic). Conditions: 1000 nM; 72 h.
Summary of the method: (§1)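 Where an area under the curve appears, it was computed with the drc and PharmacoGx R packages from log-logistic fits. Those fits used four parameters. The underlying viability data came from CellTiter-Glo after 72 h, normalised to DMSO and 10 μM proteasome-inhibitor wells, with thawed, Ficoll-purified AML or CML patient mononuclear cells at 10,000 cells/well in RPMI 1640 with 10% FBS on 384-well plates pre-printed with 70 compounds at five tenfold concentrations (1–10,000 nM) in duplicate.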

Compound	cell viability
CC[C@@]1(O)C(=O)OCc2c1cc1n(c2=O)Cc2cc3c(CN(C)C)c(O)ccc3nc2-1 [Topotecan]	96%

Same assay, conditions: 10000 nM; 72 h

Compound	cell viability
O=C(C1CC1)N1CC[C@@H](C=C2NNC(=O)N2c2ccc(-c3ccc4occc4c3)cc2)C1	79.7%
C[C@H](NC(=O)c1sccc1OCc1ccc(Cl)cc1)c1ccccc1	54%
O=C(O)C1=CC(=C(c2ccc(O)c(C(=O)O)c2)c2ccc(O)c(C(=O)O)c2)C=CC1=O [Aurintricarboxylic acid]	> 100%
COC(=O)[C@]12CCC(C)(C)C[C@H]1[C@H]1C(=O)C=C3[C@@]4(C)C=C(C#N)C(=O)C(C)(C)[C@@H]4CC[C@@]3(C)[C@]1(C)CC2 [Bardoxolone methyl]	2.44%
Cc1c(-c2ccc(-c3ccccc3F)cc2)nc2ccc(F)cc2c1C(=O)O [Brequinar]	88.6%
O=C1O/C(=C/Br)CCC1c1cccc2ccccc12 (centres undefined) [Bromoenol Lactone]	14.6%
Nc1nc(Cl)nc2c1ncn2[C@H]1C[C@H](O)[C@@H](CO)O1 [Cladribine]	94.1%
N#CC(C#N)=NNc1ccc(OC(F)(F)F)cc1 [FCCP]	5.44%
O=C1c2cc([N+](=O)[O-])ccc2-n2c1nc1ccccc1c2=O [GNF-Pf-3777]	65.1%
O=C(O)Cn1nnc(-c2cc(N3CCC(Oc4cc(F)ccc4Br)CC3)no2)n1 [MK-8245]	98.5%
C=C(C=NNC(=N)N)NNC(=N)N [Mitoguazone]	69%
COc1cc(/C=C/C(=O)N2CCC=CC2=O)cc(OC)c1OC [Piperlongumine]	3.43%
C=C(C)[C@H]1Cc2c(ccc3c2O[C@@H]2COc4cc(OC)c(OC)cc4[C@@H]2C3=O)O1 [Rotenone]	34.8%
Oc1ccc(Nc2nc(-c3ccc(Cl)cc3)cs2)cc1 [SKI II]	32.6%
CC[C@@]1(O)C(=O)OCc2c1cc1n(c2=O)Cc2cc3c(CN(C)C)c(O)ccc3nc2-1 [Topotecan]	28.6%

The compounds below were run on myeloid leukemia patient primary cells Pat.7 in the same assay as above. Conditions: 1 nM; 72 h.
Summary of the method: as §1

Compound	cell viability
O=C(C1CC1)N1CC[C@@H](C=C2NNC(=O)N2c2ccc(-c3ccc4occc4c3)cc2)C1	> 100%
C[C@H](NC(=O)c1sccc1OCc1ccc(Cl)cc1)c1ccccc1	93.1%
O=C(O)C1=CC(=C(c2ccc(O)c(C(=O)O)c2)c2ccc(O)c(C(=O)O)c2)C=CC1=O [Aurintricarboxylic acid]	87.2%
COC(=O)[C@]12CCC(C)(C)C[C@H]1[C@H]1C(=O)C=C3[C@@]4(C)C=C(C#N)C(=O)C(C)(C)[C@@H]4CC[C@@]3(C)[C@]1(C)CC2 [Bardoxolone methyl]	97.6%
Cc1c(-c2ccc(-c3ccccc3F)cc2)nc2ccc(F)cc2c1C(=O)O [Brequinar]	81.2%
O=C1O/C(=C/Br)CCC1c1cccc2ccccc12 (centres undefined) [Bromoenol Lactone]	57.6%
Nc1nc(Cl)nc2c1ncn2[C@H]1C[C@H](O)[C@@H](CO)O1 [Cladribine]	97.6%
N#CC(C#N)=NNc1ccc(OC(F)(F)F)cc1 [FCCP]	82.8%
O=C1c2cc([N+](=O)[O-])ccc2-n2c1nc1ccccc1c2=O [GNF-Pf-3777]	95.9%
O=C(O)Cn1nnc(-c2cc(N3CCC(Oc4cc(F)ccc4Br)CC3)no2)n1 [MK-8245]	97.4%
C=C(C=NNC(=N)N)NNC(=N)N [Mitoguazone]	65.3%
COc1cc(/C=C/C(=O)N2CCC=CC2=O)cc(OC)c1OC [Piperlongumine]	52%
C=C(C)[C@H]1Cc2c(ccc3c2O[C@@H]2COc4cc(OC)c(OC)cc4[C@@H]2C3=O)O1 [Rotenone]	5.63%
Oc1ccc(Nc2nc(-c3ccc(Cl)cc3)cs2)cc1 [SKI II]	79.7%
CC[C@@]1(O)C(=O)OCc2c1cc1n(c2=O)Cc2cc3c(CN(C)C)c(O)ccc3nc2-1 [Topotecan]	80.1%

Same assay, conditions: 10 nM; 72 h

Compound	cell viability
O=C(C1CC1)N1CC[C@@H](C=C2NNC(=O)N2c2ccc(-c3ccc4occc4c3)cc2)C1	97.1%
C[C@H](NC(=O)c1sccc1OCc1ccc(Cl)cc1)c1ccccc1	85.3%
O=C(O)C1=CC(=C(c2ccc(O)c(C(=O)O)c2)c2ccc(O)c(C(=O)O)c2)C=CC1=O [Aurintricarboxylic acid]	94.1%
COC(=O)[C@]12CCC(C)(C)C[C@H]1[C@H]1C(=O)C=C3[C@@]4(C)C=C(C#N)C(=O)C(C)(C)[C@@H]4CC[C@@]3(C)[C@]1(C)CC2 [Bardoxolone methyl]	67.2%
Cc1c(-c2ccc(-c3ccccc3F)cc2)nc2ccc(F)cc2c1C(=O)O [Brequinar]	87.1%
O=C1O/C(=C/Br)CCC1c1cccc2ccccc12 (centres undefined) [Bromoenol Lactone]	75.8%
Nc1nc(Cl)nc2c1ncn2[C@H]1C[C@H](O)[C@@H](CO)O1 [Cladribine]	82.8%
N#CC(C#N)=NNc1ccc(OC(F)(F)F)cc1 [FCCP]	82.5%
O=C1c2cc([N+](=O)[O-])ccc2-n2c1nc1ccccc1c2=O [GNF-Pf-3777]	70.7%
O=C(O)Cn1nnc(-c2cc(N3CCC(Oc4cc(F)ccc4Br)CC3)no2)n1 [MK-8245]	93.6%
C=C(C=NNC(=N)N)NNC(=N)N [Mitoguazone]	85.7%
COc1cc(/C=C/C(=O)N2CCC=CC2=O)cc(OC)c1OC [Piperlongumine]	> 100%
C=C(C)[C@H]1Cc2c(ccc3c2O[C@@H]2COc4cc(OC)c(OC)cc4[C@@H]2C3=O)O1 [Rotenone]	79.4%
Oc1ccc(Nc2nc(-c3ccc(Cl)cc3)cs2)cc1 [SKI II]	> 100%
CC[C@@]1(O)C(=O)OCc2c1cc1n(c2=O)Cc2cc3c(CN(C)C)c(O)ccc3nc2-1 [Topotecan]	94.3%

Same assay, conditions: 100 nM; 72 h

Compound	cell viability
O=C(C1CC1)N1CC[C@@H](C=C2NNC(=O)N2c2ccc(-c3ccc4occc4c3)cc2)C1	81.9%
C[C@H](NC(=O)c1sccc1OCc1ccc(Cl)cc1)c1ccccc1	90.3%
O=C(O)C1=CC(=C(c2ccc(O)c(C(=O)O)c2)c2ccc(O)c(C(=O)O)c2)C=CC1=O [Aurintricarboxylic acid]	> 100%
COC(=O)[C@]12CCC(C)(C)C[C@H]1[C@H]1C(=O)C=C3[C@@]4(C)C=C(C#N)C(=O)C(C)(C)[C@@H]4CC[C@@]3(C)[C@]1(C)CC2 [Bardoxolone methyl]	2.85%
Cc1c(-c2ccc(-c3ccccc3F)cc2)nc2ccc(F)cc2c1C(=O)O [Brequinar]	62%
O=C1O/C(=C/Br)CCC1c1cccc2ccccc12 (centres undefined) [Bromoenol Lactone]	76.4%
Nc1nc(Cl)nc2c1ncn2[C@H]1C[C@H](O)[C@@H](CO)O1 [Cladribine]	17.1%
N#CC(C#N)=NNc1ccc(OC(F)(F)F)cc1 [FCCP]	93.6%
O=C1c2cc([N+](=O)[O-])ccc2-n2c1nc1ccccc1c2=O [GNF-Pf-3777]	> 100%
O=C(O)Cn1nnc(-c2cc(N3CCC(Oc4cc(F)ccc4Br)CC3)no2)n1 [MK-8245]	82.9%
C=C(C=NNC(=N)N)NNC(=N)N [Mitoguazone]	< 0%
COc1cc(/C=C/C(=O)N2CCC=CC2=O)cc(OC)c1OC [Piperlongumine]	69.9%
C=C(C)[C@H]1Cc2c(ccc3c2O[C@@H]2COc4cc(OC)c(OC)cc4[C@@H]2C3=O)O1 [Rotenone]	54.6%
